Source: patent US20210154281A1, “CELL-BASED CANCER VACCINES AND CANCER THERAPIES” (Massachusetts Institute of Technology, priority 2019, published 2021)
Where two headings read alike, the source gives them in different places.

How the values were obtained:
[1] = test system: CT26 mouse colon cancer cells; details: previously reported; cited from earlier work
B16-Ova cells [2] = experiment: ATP levels in cell-free culture media by CellTiter-Glo; type: cell-based, mouse; details: for ATP (nM) MEAN: culture media 24-48 hours after treatment
Description: For measurement of ATP levels, cell-free culture media obtained as above was analyzed by CellTiter-Glo according to the manufacturer's protocol. Values were converted to ATP concentrations using a standard curve generated using pure ATP.

[3] = test system: B16F10 melanoma tumor cell line; experiment: Cell death by AnnexinV/DAPI staining 48 hours after drug treatment; type: cell-based, mouse; details: 48 hours; for cell death by DAPI and Annexin V staining: at the concentrations used; for cytotoxicity at 10 µM / viability at 10 µM / cytotoxicity at 50 µM / viability at 50 µM: Mus musculus, B16-F10; for viability at 10 µM / viability at 50 µM: read-out: AnnV−DAPI− (%) Mean
Description: For assessment of cell death, floating and attached cells were harvested after 48 hours of treatment with the indicated chemotherapeutic drugs. Attached cells were detached using 5 mM EDTA in PBS. The recovered cells were centrifuged at 250×g for 5 minutes, washed once in PBS containing 0.9 mM Ca2+ and 0.5 mM Mg2+ and then stained with AnnV-FITC for 15 minutes in Annexin binding buffer at room temperature according to the manufacturer's protocol (Biolegend). Cells were co-stained with DAPI at a final concentration of 1 μg/ml for 2 minutes in Annexin binding buffer, brought to a final volume of 500 ul using PBS containing 0.9 mM Ca2^+ and 0.5 mM Mg2^+ and analyzed by flow cytometry.
To identify how DNA-damaging chemotherapy could be optimally used to enhance anti-tumor immune function, cytotoxicity assays were performed using the B16F10 melanoma tumor cell line expressing ovalbumin (B16-Ova). Cells were treated with clinically used chemotherapeutic agents followed by assaying for cell death by DAPI and Annexin V staining 48 hours later.

MC-38-Ova cells = experiment: In vitro cross presentation assay: drug-treated MC-38-Ova cells, BMDC and OT-1 CD8+ T-cells; type: cell-based, mouse
Description: (§1) B16-Ova or MC-38 Ova cells were treated with various doses of chemotherapeutic drugs for 24 h followed by extensive washing in IMDM (10% FBS, P/S). Subsequently 1×10^6 treated cells were co-cultured with 2.5×10^5 BMDC per well of a 24-well plate for each condition tested. After 24 hours of co-culture, supernatants were removed from each well and the BMDC washed 2-3 times in T-cell media (RPMI containing 10% FBS, 20 mM HEPES, 1 mM sodium pyruvate, 55 uM b-mercaptoethanol, 2 mM L-glutamine, nonessential amino acids and antibiotics). CD8+OT-I T-cells isolated from spleens of OT-I mice were then co-cultured with the BMDC at 125,000 T-cells per well to achieve an effector to target ratio of 0.5. Where indicated, BMDC and/or T-cells were also exposed to chemotherapy drugs. After a 12-15 h incubation, IFN-g producing T-cells were identified and quantified by intra-cellular cytokine staining and flow cytometry using a BD LSR II or Fortessa flow cytometer. Cells were first gated for CD3 expression, then re-gated for CD8 and IFNg expression.

RIPK1 = experiment: Western blotting with anti phosphoRIPK1(S166) antibody; type: cell-based, mouse; details: B16-Ova cells
[4] = Cell viability (survival) assay with CellTiter-Glo, 48 hours; type: cell-based, mouse; details: mouse, B16F10 melanoma tumor cells, 48 hours, normalized to DMSO-treated control cells
Description: For assays of survival, 15,000 cells were plated per well in a 96-well plate in 100 μl media with 5 replicates per condition. Wells along the four edges of the plate were not used. Following cell attachment, the indicated drugs were added in an equal volume of media, and incubated for an additional 48 hours. The media was then removed and replaced with 100 ul of fresh media at room temperature. Following a 30 minute incubation at room temperature, 50 μl of CellTiter-Glo reagent was added, followed by 2 minutes of gentle mixing. The plate was incubated at room temperature for an additional 10 minutes. 100 μl of supernatant was transferred to a 96-well white opaque plate and luminescence was read on a Tecan microplate reader. Values were normalized to those of DMSO-treated control cells.

B16-Ova cells [5] = experiment: HMGB1 in cell culture media by ELISA; type: cell-based, mouse; details: for HMGB1 (ng/ml) MEAN: culture media 24-48 hours after treatment
Description: Cell-free cell culture media was then analyzed by ELISA for HMGB1 according to the manufacturer's protocol.

B16-Ova cells [6] = experiment: Proportion of live and dead cells (AnnV/DAPI) after 24 h treatment with increasing doses; type: cell-based, mouse
Description: B16-Ova cells or MC-38-Ova cells were treated with various doses of chemotherapy as indicated in FIGS. 1F-1I for 24 hours after which the floating fraction of cells was transferred to a separate tube and washed with PBS (for AnnV/DAPI staining) or IMDM (for co-culture with BMDC). The attached fraction was rinsed 1× with PBS, detached using 5 mM EDTA (in PBS), washed with PBS or IMDM and transferred to a separate tube. Separately, cells treated with chemotherapy for 24 h were re-plated at 1 million cells per well of a 24-well plate in 500 ul of IMDM (10% FBS; P/S). Cell-free supernatants were collected after a further 24 h. […] Lysate of the total chemotherapy-treated cell mixture was generated by three rounds of freeze-thawing by alternate incubations in liquid nitrogen and a 37 C water bath.

B16-Ova cells [7] = experiment: In vitro cross presentation assay: drug-treated B16-Ova cells, BMDC and OT-1 CD8+ T-cells, IFN-γ+ T-cells by flow cytometry; type: cell-based, mouse; design: reduction of the percentage of IFNg+ T-cells by siRNA knockdown of calreticulin / reduction of T-cell IFN-γ responses / frequency of IFN-γ+ T-cells: concentration or dose not given beside the values; details: for inducing the appearance of IFNγ+OT-1 CD8+ T-cells: 50 μM etoposide or 10 μM mitoxantrone; for reduction of the percentage of IFNg+ T-cells by siRNA knockdown of calreticulin: compared to siRNA controls
Description: as §1
An experimental system was developed to assess dendritic cell-mediated T-cell priming using the B16-Ova cells, in combination with primary bone-marrow derived dendritic cells (BMDC) and OT-I CD8+ T-cells expressing a TCR transgene that specifically recognizes the Ova-derived peptide […] (SEQ ID NO:1) in the context of H2-Kb (OT-1) (Clarke, et al., Immunol Cell Biol., 78(2):110-7 (2000); Hogquist, et al., Cell, 76(1):17-27 (1994)). […] The treated B16-Ova cells/BMDC co-culture was then incubated with purified CD8+ T-cells obtained from the spleens of OT-1 mice, and the appearance of IFNg+CD8 T-cells was measured 12-15 hours later by intracellular staining and subsequent quantification using flow cytometry.

[8] = MC-38-Ova cells treated with 10 uM for 24 h
[9] = MC-38-Ova cells treated with 50 uM for 24 h
[10] = B16-Ova cells treated with 10 uM for 24 h
[11] = B16-Ova cells treated with 50 uM for 24 h

SMILES | immunogenic cell death / calreticulin exposure [1] | ATP (nM) MEAN (B16-Ova cells [2]; 10 uM) [nM] | ATP (nM) MEAN (B16-Ova cells [2]; 50 uM) [nM] | cell death by DAPI and Annexin V staining [3] | cytotoxicity at 10 µM ([3]; read-out: AnnV+DAPI+ (%) Mean) [%] | cytotoxicity at 10 µM ([3]; read-out: AnnV+DAPI− (%) Mean) [%] | cytotoxicity at 10 µM ([3]; read-out: AnnV−DAPI+ (%) Mean) [%] | viability at 10 µM [3] [%] | cytotoxicity at 50 µM ([3]; read-out: AnnV+DAPI+ (%) Mean) [%] | cytotoxicity at 50 µM ([3]; read-out: AnnV+DAPI− (%) Mean) [%] | cytotoxicity at 50 µM ([3]; read-out: AnnV−DAPI+ (%) Mean) [%] | viability at 50 µM [3] [%] | % CD3+CD8+IFN-γ+ T-cells MEAN (MC-38-Ova cells; [8]) [%] | % CD3+CD8+IFN-γ+ T-cells MEAN (MC-38-Ova cells; [9]) [%] | RIPK1 activation (RIPK1) | viability at 48 h, 10 µM [4] [%] | viability at 48 h, 50 µM [4] [%] | HMGB1 (ng/ml) MEAN (B16-Ova cells [5]; 10 uM) [ng/mL] | HMGB1 (ng/ml) MEAN (B16-Ova cells [5]; 50 uM) [ng/mL] | inducing the appearance of IFNγ+OT-1 CD8+ T-cells (B16-Ova cells [7]) | further results
COc1cc([C@@H]2c3cc4c(cc3[C@@H](O[C@@H]3O[C@@H]5CO[C@@H](C)O[C@H]5[C@H](O)[C@H]3O)[C@H]3COC(=O)[C@H]23)OCO4)cc(OC)c1O [Etop, etoposide] | ineffective at inducing ER stress and calreticulin exposure | 2.05 | 1.35 | caused varying extents of apoptotic and non-apoptotic cell death | 51 | 11.6 | 6.54 | 30.9 | 47.9 | 10.9 | 4.57 | 36.6 | 13.13 | 3.83 | induce RIPK1 activation | 34.9 | 36.1 | 29.24 | 10.65 | highly effective | inducing the appearance of IFNγ+OT-1 CD8+ T-cells (MC-38-Ova cells; MC-38-Ova, etoposide 10 μM): the most effective treatment; HMGB1 release into the media (B16-Ova cells [5]; 24-48 hours post-treatment window): lowest levels of HMGB1 release; proportion of dead cells (AnnV or DAPI single or double positive) (B16-Ova cells [6]; 25 uM): ~30%; further increase of the proportion of dead cells (B16-Ova cells [6]; 100 uM): ~5%; proportion of dead cells (AnnV or DAPI single or double positive) (B16-Ova cells [6]; between 25 and 75 uM): ~30%; % CD3+CD8+IFN-γ+ T-cells MEAN (B16-Ova cells [7]; [10]): 0.86%; % CD3+CD8+IFN-γ+ T-cells MEAN (B16-Ova cells [7]; [11]): 4.80%; % CD3+CD8+IFN-γ+ T-cells MEAN (B16-Ova cells [7]; Table 7 experiment, 50 uM alone): 4.11%; % CD3+CD8+IFN-γ+ T-cells MEAN (B16-Ova cells [7]; Table 10 experiment, Etop 50 uM alone): 22.90%; appearance of IFN-γ+ CD8+ T-cells (B16-Ova cells [7]; co-exposure of both BMDCs and tumor cells, compared to exposure of B16-Ova cells alone): significantly reduced the appearance of IFN-γ+ CD8+ T-cells; reduction of the percentage of IFNg+ T-cells by siRNA knockdown of calreticulin (B16-Ova cells [7]): ~50%; magnitude of IFN-γ responses in T-cells (B16-Ova cells [7]; increasing doses from 0 to 100 uM): corresponding increase in the magnitude of IFN-γ responses; % CD3+CD8+IFN-γ+ T-cells MEAN (B16-Ova cells [7]; siCalR (calreticulin knockdown) B16-Ova cells, 50 uM): 2.71%; % CD3+CD8+IFN-γ+ T-cells MEAN (B16-Ova cells [7]; siCtrl (control siRNA) B16-Ova cells, 50 uM): 5.25%; tumor-directed T-cells relative to the level when exposure is limited to the tumor cells alone (B16-Ova cells [7]; triple co-exposure of tumor cells, BMDCs and T-cells): less than 10%
O=C1c2c(O)ccc(O)c2C(=O)c2c(NCCNCCO)ccc(NCCNCCO)c21 [Mito, mitoxantrone] | promote strong immunogenic cell death | 1.02 | 1.80 | caused varying extents of apoptotic and non-apoptotic cell death | 52.4 | 17.1 | 9.44 | 21.1 | 73.8 | 11.7 | 8.5 | 6.08 | 3.433 | 0.148 | induce RIPK1 activation | 0.0743 | 0.000452 | 70.09 | 14.63 | highly effective | ATP release (B16-Ova cells [2]; after 24 hours of treatment): Substantial ATP release; dead cell proportion (B16-Ova cells [6]; 25 uM and higher doses): greater than 90%; dead cell proportion (B16-Ova cells [6]; between 5 and 10 uM): ~50%; IFN-γ responses in T-cells (B16-Ova cells [7]; 5 uM): maximum IFN-γ responses; IFN-γ responses in T-cells (B16-Ova cells [7]; 10 uM): lower IFN-γ response; IFN-γ responses in T-cells (B16-Ova cells [7]; 25 uM and higher doses): undetectable; % CD3+CD8+IFN-γ+ T-cells MEAN (B16-Ova cells [7]; [10]): 5.57%; % CD3+CD8+IFN-γ+ T-cells MEAN (B16-Ova cells [7]; [11]): 0.44%; % CD3+CD8+IFN-γ+ T-cells MEAN (B16-Ova cells [7]; Table 7 experiment, 10 uM alone): 3.98%; reduction of the percentage of IFNg+ T-cells by siRNA knockdown of calreticulin (B16-Ova cells [7]): ~80%; % CD3+CD8+IFN-γ+ T-cells MEAN (B16-Ova cells [7]; siCalR (calreticulin knockdown) B16-Ova cells, 10 uM): 1.10%; % CD3+CD8+IFN-γ+ T-cells MEAN (B16-Ova cells [7]; siCtrl (control siRNA) B16-Ova cells, 10 uM): 4.63%
